Source: patent US20160271063A1, “STERILE S-ADENOSYL METHIONINE WITH A HIGH CONTENT OF ACTIVE ISOMER FOR INJECTABLE SOLUTIONS, AND PROCEDURE FOR OBTAINING IT” (GNOSIS S.P.A., priority 2013, published 2016)
Entries after “also recorded” stand apart in the source; their conditions may differ.

Experiments:
[1] = sterile spray-dried product
[2] = S,S isomer content by HPLC (area of active isomer to sum of both isomers); type: physicochemical; conditions: for S,S Stereoisomer %: Test in Mobile Minor unit, IN/OUT temperature differs per test; for enantiomeric excess of S,S isomer: sterile spray-dried product
Experimental: The S-adenosyl methionine of the invention preferably has a water content below 2% by weight and an active enantiomer content exceeding 75% of the total SAMe. The enantiomer content is determined by the percentage of the area of active isomer to the sum of the area of both isomers in the HPLC analysis.

[3] = Residual humidity of the powder; type: physicochemical; conditions: for Humidity %: Test in Mobile Minor unit, IN/OUT temperature differs per test
[4] = Particle size (laser particle-size distribution analysis); type: physicochemical; conditions: for Particle size D50μ: Test in Mobile Minor unit, IN/OUT temperature differs per test
[5] = Microscope appearance of particles; type: physicochemical
BET surface area = type: physicochemical
[6] = Stability of SAMe salt solutions; type: physicochemical
[7] = Table 2, comparison with the medicament on the market
[8] = spray-dried, TIN 150° C., TOUT 95-96° C.

Row | Structure (SMILES) | endotoxin level [1] | S,S Stereoisomer % [2] [%] | enantiomeric excess of S,S isomer [2] | Humidity % [3] [%] | Particle size D50μ [4] [μ] | other results
1 | C[S+](CC[C@H](N)C(=O)[O-])C[C@H]1O[C@@H](n2cnc3c(N)ncnc32)[C@H](O)[C@@H]1O.O=S(=O)(O)CCCCS(=O)(=O)O (single isomer, unassigned) [Example 3, SAMe 1,4-butanedisulphonate] | less than 0.118 U/g | 75.65 | exceeding 80% | 1.63 | 9 | 
2 | C[S+](CC[C@H](N)C(=O)[O-])C[C@H]1O[C@@H](n2cnc3c(N)ncnc32)[C@H](O)[C@@H]1O.O=S(=O)(O)CCCCS(=O)(=O)O (single isomer, unassigned) [Example 5, SAMe 1,4-butanedisulphonate] |  | 76.63 |  | 1.88 | 9 | SS isomer (%) [2, 7]: 73.1%; Humidity [3, 7]: 1.20%; Microscope [5]: Regular,; also recorded: spherical particles; Laser particle-size distribution analysis, 10% ([4]; 10%): 10% = 14.4 micron; Laser particle-size distribution analysis, 50% ([4]; 50%): 50% = 28.7 micron; Laser particle-size distribution analysis, 90% ([4]; 90%): 90% = 53.8 micron; BET surface area (m2/g) (BET surface area): 0.3460 m2/g
3 | C[S+](CC[C@H](N)C(=O)[O-])C[C@H]1O[C@@H](n2cnc3c(N)ncnc32)[C@H](O)[C@@H]1O.O=S(=O)(O)CCCCS(=O)(=O)O (single isomer, unassigned) [Example 7, SAMe 1,4-butanedisulphonate, reference compound] |  | 75.95 |  | 2.65 | 10 | enantiomeric ratio, S,S isomer [2]: 70%
4 | C[S+](CC[C@H](N)C(=O)[O-])C[C@H]1O[C@@H](n2cnc3c(N)ncnc32)[C@H](O)[C@@H]1O.O=S(=O)(O)CCCCS(=O)(=O)O (single isomer, unassigned) [Example 4, SAMe 1,4-butanedisulphonate] | less than 0.118 U/g | 72.60 | exceeding 80% | 1.63 | 8 | 
5 | C[S+](CC[C@H](N)C(=O)[O-])C[C@H]1O[C@@H](n2cnc3c(N)ncnc32)[C@H](O)[C@@H]1O.O=S(=O)(O)CCCCS(=O)(=O)O (some centres unmarked) [Example 1, SAMe 1,4-butanedisulphonate] |  |  |  |  |  | stereoisomeric ratio [2, 8]: 73.77%; residual humidity [3, 8]: 1.50%; particle size D50 [4, 8]: 10 microns
6 | C[S+](CC[C@H](N)C(=O)[O-])C[C@H]1O[C@@H](n2cnc3c(N)ncnc32)[C@H](O)[C@@H]1O (some centres unmarked) [SAMe SD4, S-adenosyl methionine] |  |  |  |  |  | stability of the solution ([6]; at ambient temperature): break down rapidly; stability of the solution ([6]; stored at a cold temperature, unless microbial contamination is present): stable
